In data set [1] the target is Programmed cell death protein 1/Programmed cell death 1 ligand 1 (Homo sapiens, UniProt Q15116+Q9NZQ7). As to the kind of experiment: Inhibition of human PD-1/PD-L1 interaction assessed as disruption of PD-1/PD-L1 complex incubated for 2 hrs by Tag-1 Eu3+ and anti-Tag2-XL665 based HTRF assay. The format is protein-complex assay. On the technique in general: Time-resolved FRET reads energy transfer from a long-lived donor to a nearby acceptor.

Data set [2] can be described thus: Anti-tumor activity against mouse lewis lung carcinoma cells allografted in C57BL6 mouse assessed as reduction in tumor growth at 5 mg/kg, ig for 21 days relative to control. In kind it is functional. Particulars: po, 504 h, time 21 day, read-out: TGI.
Data set [3] has as its system Mus musculus. As to the kind of experiment: Toxicity in C57BL6 mouse allografted with mouse lewis lung carcinoma cells assessed as reduction body weight at 5 mg/kg, ig for 21 days. The format is organism-based. Conditions: in vivo, po, 504 h, time 21 day.
For data set [4], the system named is Mus musculus. As to the kind of experiment: Upregulation of IFNgamma protein expression in C57BL6 mouse serum allografted with mouse lewis lung carcinoma cells at 5 mg/kg, ig for 21 days by ELISA. In kind it is functional, organism-based. Particulars: time 21.0 day. A general note: In an ELISA, binding on a coated surface is turned into a signal by an enzyme label.

The source made the active and inactive calls. The calls are words filed in the database; no cut-off is given here.

Chain of Programmed cell death protein 1/Programmed cell death 1 ligand 1 (Q15116 whole entry): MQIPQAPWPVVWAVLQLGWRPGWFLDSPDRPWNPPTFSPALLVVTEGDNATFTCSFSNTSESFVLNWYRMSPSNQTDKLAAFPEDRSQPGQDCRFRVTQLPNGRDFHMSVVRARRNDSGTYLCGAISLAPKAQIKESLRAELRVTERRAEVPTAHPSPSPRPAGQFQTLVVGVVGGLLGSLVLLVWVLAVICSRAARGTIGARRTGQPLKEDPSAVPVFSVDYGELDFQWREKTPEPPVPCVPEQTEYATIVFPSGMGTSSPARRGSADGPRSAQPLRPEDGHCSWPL
Chain of Programmed cell death protein 1/Programmed cell death 1 ligand 1 (Q9NZQ7 whole entry): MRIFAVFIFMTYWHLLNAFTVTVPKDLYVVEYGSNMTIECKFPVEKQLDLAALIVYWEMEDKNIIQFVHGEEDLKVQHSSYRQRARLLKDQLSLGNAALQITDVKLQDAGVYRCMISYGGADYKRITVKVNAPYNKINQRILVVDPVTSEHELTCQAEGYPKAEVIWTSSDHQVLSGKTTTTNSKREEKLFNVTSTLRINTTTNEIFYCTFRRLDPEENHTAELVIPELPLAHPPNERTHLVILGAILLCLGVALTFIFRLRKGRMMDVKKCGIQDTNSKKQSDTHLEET

For the molecule `Cc1c(COc2ccc(CN[C@H](C(=O)O)[C@@H](C)O)cc2[N+](=O)[O-])cccc1-c1ccccc1`, in data set [1], the IC50 (usually the midpoint of a concentration-inhibition curve) amounted to 61 nM. The same measure, in the same setting: under `Cc1c(COc2ccc(CNCCO)cc2[N+](=O)[O-])cccc1-c1ccccc1` stands 11.8 nM. Consider `CC(=O)NCCNC(=O)[C@@H]1CCCN1Cc1ccc(OCc2cccc(-c3ccccc3)c2C)c([N+](=O)[O-])c1`, for which, in data set [1], the IC50 turned out to be 56.4 nM. Still for that read-out and setting: under `Cc1c(COc2ccc(CN3CCC[C@H]3C(=O)N[C@@H](CO)C(=O)O)cc2[N+](=O)[O-])cccc1-c1ccccc1` stands 73.2 nM; under `Cc1c(COc2ccc(CN3CCC[C@H]3C(=O)NC(C)(CO)CO)cc2[N+](=O)[O-])cccc1-c1ccccc1`, 49.4 nM. The same measure, in the same setting: for `Cc1c(COc2ccc(CN3CCCC[C@H]3C(=O)O)cc2[N+](=O)[O-])cccc1-c1ccccc1` the value was 8.78 nM; for `Cc1c(COc2cc(OCc3cccnc3)c(CN[C@H](C(=O)O)[C@@H](C)O)cc2[N+](=O)[O-])cccc1-c1ccccc1`, 15.5 nM; for `Cc1c(COc2cc(OCc3cccc(C#N)c3)c(CN3CCCC[C@H]3C(=O)N[C@@H](CO)C(=O)O)cc2[N+](=O)[O-])cccc1-c1ccccc1`, 8.01 nM. Same read-out and setting: under `Cc1c(COc2ccc(CNCCCNC(CO)CO)cc2[N+](=O)[O-])cccc1-c1ccccc1` stands 28.7 nM; under `Cc1c(COc2cc(OCc3cccnc3)c(CN[C@@H](CO)C(=O)O)cc2[N+](=O)[O-])cccc1-c1ccccc1`, 17.9 nM. Take `CC(=O)NCCNCc1ccc(OCc2cccc(-c3ccccc3)c2C)c([N+](=O)[O-])c1`: the IC50 in data set [1] is 13.1 nM.

As for `C[C@@H](O)[C@H](NCc1ccc(OCc2cccc(-c3ccccc3)c2Br)c([N+](=O)[O-])c1)C(=O)O`, the IC50 in data set [1] turned out to be 353 nM.

With `Cc1c(COc2ccc(CN3CCCC[C@H]3C(=O)N[C@@H](C)C(=O)O)cc2[N+](=O)[O-])cccc1-c1ccccc1`, in data set [1], the half-inhibitory concentration (IC50) is 12.7 nM.

Regarding `Cc1c(COc2ccc(CNC(CO)CO)cc2[N+](=O)[O-])cccc1-c1ccccc1`, the IC50 in data set [1] was 8.91 nM. For `Cc1c(COc2cc(OCc3cccc(C#N)c3)c(CN[C@@H](CO)C(=O)O)cc2[N+](=O)[O-])cccc1-c1ccccc1`, the IC50 in data set [1] was found to be 13 nM.

`Cc1c(COc2cc(OCc3cccc(C#N)c3)c(CN3CCCC[C@H]3C(=O)O)cc2[N+](=O)[O-])cccc1-c1ccccc1`: the IC50 in data set [1] is 5.65 nM. On to `Cc1c(COc2ccc(CN3CCCC[C@H]3C(=O)N3CCC[C@H]3C(=O)O)cc2[N+](=O)[O-])cccc1-c1ccccc1`, for which the half-inhibitory concentration (IC50) in data set [1] amounted to 14.8 nM.

Turning to `CSCC[C@H](NCc1ccc(OCc2cccc(-c3ccccc3)c2C)c([N+](=O)[O-])c1)C(=O)O`, the IC50 in data set [1] amounted to 17.8 nM. With `Cc1c(COc2ccc(CNC(C)(CO)CO)cc2[N+](=O)[O-])cccc1-c1ccccc1`, the IC50 in data set [1] stood at 92.1 nM. Regarding `Cc1c(COc2ccc(CN3CCC[C@H]3C(=O)N(C)CC(O)CO)cc2[N+](=O)[O-])cccc1-c1ccccc1` (stereo partly specified), in data set [1], the half-inhibitory concentration (IC50) came to 9.98 nM. For `Cc1c(COc2ccc(CNCCC(=O)O)cc2[N+](=O)[O-])cccc1-c1ccccc1`, the IC50 in data set [1] came out at 39.5 nM. The same measure, in the same setting: under `Cc1c(COc2ccc(CN3CCC[C@H]3C(=O)O)cc2[N+](=O)[O-])cccc1-c1ccccc1` stands 45.2 nM. For `Cc1c(COc2ccc(CN3CCC[C@H]3C(=O)N[C@H](C(=O)O)[C@@H](C)O)cc2[N+](=O)[O-])cccc1-c1ccccc1`, the concentration for half-maximal inhibition (IC50) in data set [1] came out at 55.6 nM. On to `Cc1c(COc2ccc(CNCCN(C)C)cc2[N+](=O)[O-])cccc1-c1ccccc1`, for which the IC50 in data set [1] is 37.7 nM. Still for that read-out and setting: for `Cc1c(COc2cc(OCc3cccc(C#N)c3)c(CN3CCCC[C@H]3C(=O)N3CCC[C@H]3C(=O)O)cc2[N+](=O)[O-])cccc1-c1ccccc1` the value was 4.31 nM; for `Cc1c(COc2cc(OCc3ccnc(C#N)c3)c(CN[C@@H](CO)C(=O)O)cc2[N+](=O)[O-])cccc1-c1ccccc1`, 9.33 nM; for `CC(=O)NCCNCc1cc([N+](=O)[O-])c(OCc2cccc(-c3ccccc3)c2C)cc1OCc1cccc(C#N)c1`, 8.11 nM. Still for that read-out and setting: under `Cc1c(COc2ccc(CN(CCO)CCO)cc2[N+](=O)[O-])cccc1-c1ccccc1` stands 21.4 nM; under `Cc1c(COc2ccc(CN3CCCC[C@H]3C(=O)N[C@@H](CO)C(=O)O)cc2[N+](=O)[O-])cccc1-c1ccccc1`, 12.4 nM. For `Cc1c(COc2ccc(CN[C@@H](CO)C(=O)O)c(OCc3cccc(C#N)c3)c2)cccc1-c1ccccc1`, in data set [1], the IC50 worked out at 30.2 nM. Besides, the inhibition in vivo at 5 mg/kg in data set [2] was found to be 17.8%. In addition, the Activity result in data set [3] is “Non-Toxic”. Moreover, the outcome in data set [4] was Active. On to `CCC(CO)(CO)NC(=O)[C@@H]1CCCN1Cc1ccc(OCc2cccc(-c3ccccc3)c2C)c([N+](=O)[O-])c1`, for which the IC50 in data set [1] is 82.3 nM. The same measure, in the same setting: for `Cc1c(COc2cc(OCc3cccc(C#N)c3)c(CN(C)CC(=O)O)cc2[N+](=O)[O-])cccc1-c1ccccc1` the value was 7.44 nM; for `Cc1c(COc2ccc(CNCc3ccoc3)cc2[N+](=O)[O-])cccc1-c1ccccc1`, 87.4 nM. Take `Cc1c(COc2ccc(CN(C)CC(=O)O)cc2[N+](=O)[O-])cccc1-c1ccccc1`: in data set [1], the IC50 was 20.9 nM.

In the case of `Cc1c(COc2cc(OCc3cccnc3)c(CN3CCCC[C@H]3C(=O)O)cc2[N+](=O)[O-])cccc1-c1ccccc1`, in data set [1], the IC50 amounted to 8.75 nM.

On to `Cc1c(COc2cc(OCc3cccc(C#N)c3)c(CN3CCC[C@H]3C(=O)O)cc2[N+](=O)[O-])cccc1-c1ccccc1`, for which the IC50 in data set [1] is 22.7 nM. The same measure, in the same setting: under `Cc1c(COc2ccc(CN3CCC[C@H]3C(=O)N[C@@H](C)CO)cc2[N+](=O)[O-])cccc1-c1ccccc1` stands 61.8 nM. The same measure, in the same setting: for `Cc1c(COc2cc(OCc3cccc(C#N)c3)c(CNC(CO)CO)cc2[N+](=O)[O-])cccc1-c1ccccc1` the value was 7.8 nM; for `Cc1c(COc2cc(OCc3cccc(C#N)c3)c(CNCCO)cc2[N+](=O)[O-])cccc1-c1ccccc1`, 3.59 nM; for `Cc1c(COc2ccc(CN3CCCC[C@H]3C(=O)N[C@H](C(=O)O)[C@@H](C)O)cc2[N+](=O)[O-])cccc1-c1ccccc1`, 26.7 nM. Regarding `Cc1c(COc2cc(OCc3ccnc(C#N)c3)c(CN3CCCC[C@H]3C(=O)O)cc2[N+](=O)[O-])cccc1-c1ccccc1`, the IC50 in data set [1] was found to be 10.2 nM. Take `Cc1c(COc2cc(OCc3ccnc(C#N)c3)c(CN[C@H](C(=O)O)[C@@H](C)O)cc2[N+](=O)[O-])cccc1-c1ccccc1`: the IC50 in data set [1] is 10.2 nM. Turning to `Cc1c(COc2ccc(CN[C@@H](CO)C(=O)O)cc2[N+](=O)[O-])cccc1-c1ccccc1`, the IC50 in data set [1] was determined as 27.7 nM. The same measure, in the same setting: under `Cc1c(COc2ccc(CNCC(C)(C)O)cc2[N+](=O)[O-])cccc1-c1ccccc1` stands 46.7 nM; under `Cc1c(COc2ccc(CN3CCC[C@H]3C(=O)NCCO)cc2[N+](=O)[O-])cccc1-c1ccccc1`, 55.7 nM. Same read-out and setting: for `Cc1c(COc2cc(OCc3cccc(C#N)c3)c(CN3CCCC[C@H]3C(=O)NCC(C)(C)O)cc2[N+](=O)[O-])cccc1-c1ccccc1` the value was 4.77 nM. Take `Cc1c(COc2ccc(CN3CCC[C@H]3C(=O)NCC(C)(C)O)cc2[N+](=O)[O-])cccc1-c1ccccc1`: the IC50 in data set [1] amounted to 71.2 nM. With `Cc1c(COc2ccc(CN3CCCC[C@H]3C(=O)NCC(C)(C)O)cc2[N+](=O)[O-])cccc1-c1ccccc1`, in data set [1], the IC50 is 12.1 nM.

The values above are taken from ChEMBL document CHEMBL5033993, “Design, Synthesis, and Evaluation of o-(Biphenyl-3-ylmethoxy)nitrophenyl Derivatives as PD-1/PD-L1 Inhibitors with Potent Anticancer Efficacy In Vivo” (J Med Chem, 2021).
